Test results from patent publication US20240368668A1, “SUBSTRATES AND BIOMARKERS OF ADAMTS7” (The Broad Institute, Inc., priority 2021, published 2024).
Square brackets hold non-standard residues; d marks the D form. Ends that are not written are not given here.

Test system: mouse ADAMTS7
Assay: TMT10 TAILS N-terminomics, SMC2 experiment (process replicates, trypsin/AspN digest)
Format: cell-based
Details: SMC2_TAILS HC
Text: ADAMTS7 Expression, Cell Culture and Preparation of the Secreted Proteins—Full-length mouse Adamts7 1-1857 (Uniprot Q68SA9, WT or E373Q catalytic mutant) with a carboxyl terminal 3xFLAG tag was used to generate custom adenoviruses as previously described. Adeno-CMV-Luciferase (Ad-Luc) from Vector Biolabs was used as a negative control. Human Coronary Artery Smooth Muscle Cells (HCA-SMC) were obtained from Lonza and expanded in Lonza SmGM-2 media in 15 cm tissue culture plates. Twenty-four hours before media collection, near confluent plates were transduced with 50 MOI adenovirus and switched to Lonza Basal SM media with volumes of 20 ml per 15 cm plate. Expression of the Flag tagged ADAMTS7 was confirmed from the media using western blot and detected using the anti-Flag M2-HRP antibody (Sigma, A8592). Collected media was processed by adding protease inhibitors (1 mM EDTA and 1 mM PMSF) and clarified by 500 g×5 min spin at 4 C to pellet cell debris. Cell media supernatants were then passed through a 0.22 um filter and kept chilled. Processed media was then concentrated 50-100× using 3 kDa Centricon Plus-70 filter unit, spun at 3,500 g×60 min at 4 C. Approximately 10% of the processed, concentrated media was set aside for total secretome proteolytic analysis. The remaining 90% of the processed, concentrated media was buffer exchanged into 50 mM HEPES pH 8.0, 150 mM NaCl (2×50 ml) using the 3 kDa Centricon Plus-70 filter unit and concentrated to >2 mg/ml to serve as input for the TAILS experiment. Secretome and TAILS input samples were stored at −80° C.
For the first experiment, referred to as SMC1, 120 ml of media from 6×15 cm dishes was pooled from each condition (Luc, WT, EQ) and processed to produce three separate inputs for the TAILS experiment. Luc, WT and EQ inputs from the SMC1 experiment were each divided into triplicate 400 ug samples to generate technical replicate TAILS data. For the second experiment, referred to as SMC2, media was processed separately in triplicate for each condition (Luc1, Luc2, Luc3, WT1, WT2, WT3, EQ1, EQ2, EQ3) using 60 ml of media from 3×15 cm dishes for each process replicate. Inputs from the SMC2 experiment used process replicates of 300 ug each to generate TAILS data. The third experiment used input from cultured Human umbilical vein endothelial cells (HUVEC) from Lifeline Cell Technology grown in VascuLife Media and transduced in Lifeline Basal EC (+bFGF2 10 ng/ml). The HUVEC experiment used the same strategy as the SMC2 experiment, with 40 ml of media from 2×15 cm dishes for each process replicate and used 200 ug each to generate TAILS data. Inputs for process replicate experiments were restricted to the lowest concentration from the 9 parallel samples for SMC2 or HUVEC.
TMT10 isotopic labeling and negative selection of non-labeled peptides-Sample preparation was performed based on the TAILS protocol from the Overall lab with some modifications. From a single experiment, nine parallel protein samples in 50 mM HEPES pH 8.0, 150 mM NaCl were separately denatured with guanidinium chloride (Sigma, G4505) to reach a final concentration of 2.5M guanidinium chloride and 250 mM HEPES and incubated at 65° C. for 15 min. Reduction was achieved through addition of tris(2-carboxylethyl) phosphine (TCEP) at a final concentration of […] and incubated at 65° C. for 45 min. Alkylation reaction was performed with addition of iodoacetamide (IAA, Sigma, A3221) to a final concentration of 10 mM IAA for 15 min at room temperature in the dark. Following denaturation, reduction and alkylation steps, ten percent of each of the nine parallel protein samples was removed and combined to serve as a pooled reference. Isobaric tags were added to free amine groups using the TMT10plex Isobaric Mass Tagging Kit (ThermoFisher, 90113) with TMT channels randomly assigned to the nine samples and TMT 131 assigned to the pooled reference. […]

[1] = log fold change of N-terminal peptide, Ad-mADAMTS7 WT over EQ

Substance | logFC.mWT.over.mEQ (log fold change, mWT over mEQ) | logFC.mWT.over.mEQ [1]
AEBP1_37 (FLEGFLSELEPEPR; listed as Homo sapiens) | 3.48 | 
CCDC80_66 (LEEPNLQPLQR; listed as Homo sapiens) | 2.21 | 
EFEMP1_124 (AVAGPEMQTGR; listed as Homo sapiens) | 3.27 | 
EFEMP1_125 (VAGPEMQTGR; listed as Homo sapiens) | 2.42 | 
FBLN2_259 (ALGPPAPVQAKAR; listed as Homo sapiens) | 1.88 | 
FBLN2_260 (LGPPAPVQAKAR; listed as Homo sapiens) | 2.42 | 
FBN1_29 (LEAGNVKETR; listed as Homo sapiens) | 3.57 | 
FBN1_53 (LKGPNVCGSR; listed as Homo sapiens) | 4.89 | 
FLNA_1285 (LTQTGGPHVKAR; listed as Homo sapiens) | 5.72 | 
FN1_36 (MVQPQSPVAVSQSKPGCYDNGKHYQINQQWER; listed as Homo sapiens) | 3.69 | 
FN1_40 (QSPVAVSQSKPGCYDNGKHYQINQQWER; listed as Homo sapiens) | 2.66 | 
FN1_1143 (LTPGVEYVYTIQVLR; listed as Homo sapiens) | 2.80 | 
FN1_1656 (SSSPVTGYR; listed as Homo sapiens) | 1.86 | 
GSN_413 (HIANVER; listed as Homo sapiens) | 1.74 | 
HSPG2_275 (LLPGSVR; listed as Homo sapiens) | 2.10 | 
HSPG2_2331 (ANLAYPAGSTQPIR; listed as Homo sapiens) | 1.91 | 
HSPG2_2333 (LAYPAGSTQPIR; listed as Homo sapiens) | 1.41 | 
IGFBP3_31 (SAGLGPVVR; listed as Homo sapiens) | 2.44 | 
IGFBP3_32 (AGLGPVVR; listed as Homo sapiens) | 5.18 | 
IGFBP7_101 (AAGGPGVSGVCVCKSR; listed as Homo sapiens) | 2.57 | 
LOXL1_219 (VASAGVIYPYQPR; listed as Homo sapiens) |  | 1.47
LOXL2_37 (FQQPAPEYHQPQAPANVAKIQLR; listed as Homo sapiens) |  | 3.30
LOXL2_38 ([code q]QPAPEYHQPQAPANVAKIQLR; not fully specified; listed as Homo sapiens) |  | 1.68
LOX_58 (LSLGSQYQPQR; listed as Homo sapiens) | 1.77 | 
LOX_123 (HWFQAGYSTSR; listed as Homo sapiens) | 1.37 | 
LOX_124 (WFQAGYSTSR; listed as Homo sapiens) | 3.45 | 
LOX_126 (QAGYSTSR; listed as Homo sapiens) | 3.03 | 
LTBP1_393 (LTATNFR; listed as Homo sapiens) |  | 6.30
LTBP1_540 (HQQVIPHVYPVAAKTQLGR; listed as Homo sapiens) |  | 1.77
